Test results taken from PMC7290078, “Agonist bias and agonist‐dependent antagonism at corticotrophin releasing factor receptors” (Pharmacology Research & Perspectives, 2020).
Read-outs that look alike come from different tables or passages of the source. One block for each molecule: values may come before it. No end group written: not given here.

Experiments:
[1] = test system: CRF receptor type 1; design: method as in PMID 17057757; settings: blockade of UCN1; cited from earlier work
[2] = molecular target: T1, CRF1 receptor (hCRF1α) (Homo sapiens, UniProt P34998); experiment: cAMP accumulation (LANCE) in Cos7 cells transfected with hCRF1α, agonist stimulation; assay type: cell-based; settings: cAMP, CRF1 receptor, antagonist alone, n = 3
T1 construct: host or cells: Cos7 cells, transient transfection (PEI), pcDNA3.0/3.1 vector
T1 sequence (P34998 24-415): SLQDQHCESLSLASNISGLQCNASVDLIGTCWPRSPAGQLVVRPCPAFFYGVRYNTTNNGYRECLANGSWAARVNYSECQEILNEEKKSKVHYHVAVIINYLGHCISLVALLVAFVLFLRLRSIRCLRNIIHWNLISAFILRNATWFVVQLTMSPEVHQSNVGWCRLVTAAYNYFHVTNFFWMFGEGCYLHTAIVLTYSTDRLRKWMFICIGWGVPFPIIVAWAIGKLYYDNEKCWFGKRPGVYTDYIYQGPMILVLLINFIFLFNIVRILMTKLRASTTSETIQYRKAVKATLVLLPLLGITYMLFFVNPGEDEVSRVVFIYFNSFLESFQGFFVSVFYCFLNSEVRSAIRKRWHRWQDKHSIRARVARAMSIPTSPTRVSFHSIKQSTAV
From the text: (§1) Plasmids containing hCRF1α and hCRF2α (GenBank accession numbers AY457172 and AY449734) were obtained from the cDNA Resource Centre (Bloomsburg University) and are referred to as CRF1 and CRF2 in this manuscript. Hemagglutinin (HA) epitope‐tagged human Calcitonin (CT) receptor (CT(a) splice variant) and myc‐tagged human RAMP1 were used as described previously. ^27 HA‐tagged human calcitonin receptor‐like receptor (CLR), N‐terminal FLAG‐tagged human RAMP3 and N‐terminal myc‐tagged human RAMP3 were a gift from Professor David Poyner (Aston University) and Professor Patrick Sexton (Monash University), respectively. N‐terminal FLAG‐tagged human RAMP2 was used as described previously. ^28 All receptors and RAMPs were cloned in pcDNA3.0 or pcDNA3.1 plasmid vectors. All plasmid inserts were sequenced at the Centre for Genomics, Proteomics and Metabolomics (University of Auckland) and the sequences were verified prior to use.
Cos7, HEK‐293S, and HEK‐293T cells were cultured as described previously. ^28 , ^29 Cos7 cells were originally supplied by the ATCC to Associate Professor Nigel Birch (University of Auckland). HEK‐293S cells were a gift from Professor David Poyner (Aston University) and HEK‐293T cells a gift from Professor John Taylor (University of Auckland). Briefly, all cell lines were cultured in Dulbecco's Modified Eagle Medium (DMEM) supplemented with 8% heat inactivated fetal bovine serum (FBS) and maintained in a humidified incubator at 37°C with 5% CO2. For transfection, cells were counted (Countess CounterTM; Life Technologies) and plated at a density of 20 000 cells per well in 96‐well plates. The cells were transiently transfected 48 hours prior to assaying using polyethylenimine (PEI), as described previously. ^28 , ^29 In all experiments a total of 0.25 μg DNA was transfected per well. In the majority of experiments 0.25 μg DNA of receptor‐containing plasmid or the pcDNA3.1 plasmid without an insert was used. For experiments involving RAMPs, 0.125 μg of receptor DNA and 0.125 μg of RAMP‐containing plasmid DNA were transfected to give a 1:1 ratio of receptor to RAMP. […]
cAMP accumulation in Cos7 cells transfected with hCRF1α or hCRF2α receptors was measured using the LANCE cAMP detection assay kit (PerkinElmer Life and Analytical Sciences) as described previously. ^30 Briefly, culture media was removed and replaced with DMEM containing 0.1% bovine albumin serum (BSA) and 1 mmol/L 3‐isobutyl‐1‐methylxanthine (IBMX) for 30 minutes at 37°C. […] Samples were shaken for 15 minutes before 5 µL cell lysate was transferred to a white 384‐well optiplate and processed for cAMP quantification as described previously. ^31 Samples were read using an Envision plate reader (PerkinElmer). cAMP concentrations were determined from a standard curve generated in duplicate. […]

[3] = molecular target: T1, CRF1 receptor (hCRF1α); experiment: Antagonism of agonist-mediated cAMP accumulation in Cos7 cells expressing CRF1 receptors; assay type: cell-based; settings: for Kb: hCRF1α, global Schild analysis, mean ± SEM, read-out: antagonist potency (pKB) (converted)
[4] = molecular target: T2, CRF2 receptor (hCRF2α) (Homo sapiens, UniProt Q13324); experiment: cAMP accumulation (LANCE) in Cos7 cells transfected with hCRF2α, agonist stimulation; assay type: cell-based; settings: COS-7; cAMP, CRF2 receptor, antagonist alone; n = 3; read-out: E max (partial agonism of antagonist)
T2 construct: host or cells: Cos7 cells, transient transfection (PEI), pcDNA3.0/3.1 vector
T2 sequence (Q13324 1-411): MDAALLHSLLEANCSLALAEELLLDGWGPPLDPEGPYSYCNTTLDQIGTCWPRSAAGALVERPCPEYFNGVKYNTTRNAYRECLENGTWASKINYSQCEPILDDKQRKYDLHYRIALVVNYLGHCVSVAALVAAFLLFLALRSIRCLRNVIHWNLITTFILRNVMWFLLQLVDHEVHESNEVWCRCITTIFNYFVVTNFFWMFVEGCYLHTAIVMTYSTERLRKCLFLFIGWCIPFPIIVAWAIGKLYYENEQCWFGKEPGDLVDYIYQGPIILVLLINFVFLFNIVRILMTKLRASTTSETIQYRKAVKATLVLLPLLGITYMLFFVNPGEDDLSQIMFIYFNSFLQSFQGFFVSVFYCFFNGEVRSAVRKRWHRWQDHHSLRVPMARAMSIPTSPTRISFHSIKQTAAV
From the text: as §1
(§2) Cos7, HEK‐293S, and HEK‐293T cells were cultured as described previously. ^28 , ^29 Cos7 cells were originally supplied by the ATCC to Associate Professor Nigel Birch (University of Auckland). HEK‐293S cells were a gift from Professor David Poyner (Aston University) and HEK‐293T cells a gift from Professor John Taylor (University of Auckland). Briefly, all cell lines were cultured in Dulbecco's Modified Eagle Medium (DMEM) supplemented with 8% heat inactivated fetal bovine serum (FBS) and maintained in a humidified incubator at 37°C with 5% CO2. For transfection, cells were counted (Countess CounterTM; Life Technologies) and plated at a density of 20 000 cells per well in 96‐well plates. The cells were transiently transfected 48 hours prior to assaying using polyethylenimine (PEI), as described previously. ^28 , ^29 In all experiments a total of 0.25 μg DNA was transfected per well. In the majority of experiments 0.25 μg DNA of receptor‐containing plasmid or the pcDNA3.1 plasmid without an insert was used. For experiments involving RAMPs, 0.125 μg of receptor DNA and 0.125 μg of RAMP‐containing plasmid DNA were transfected to give a 1:1 ratio of receptor to RAMP. Where the RAMP or receptor were transfected alone, the ratio of DNA was made up with the pcDNA3.1 plasmid.
(§3) cAMP accumulation in Cos7 cells transfected with hCRF1α or hCRF2α receptors was measured using the LANCE cAMP detection assay kit (PerkinElmer Life and Analytical Sciences) as described previously. ^30 Briefly, culture media was removed and replaced with DMEM containing 0.1% bovine albumin serum (BSA) and 1 mmol/L 3‐isobutyl‐1‐methylxanthine (IBMX) for 30 minutes at 37°C. Cells were incubated for an additional 15 minutes at 37°C with media or agonist concentrations of 1 pmol/L to 1 µmol/L for agonist only assays or 10 pmol/L to 10 µmol/L concentrations for antagonist experiments. Antagonists were added simultaneously or immediately prior to the addition of agonists. To stop cell stimulation and extract cAMP, the contents of the wells were replaced with 50 µL absolute ethanol. Samples were left at −20°C for a minimum of 10 minutes. The ethanol was evaporated and replaced with 50 µL of cAMP detection buffer. Samples were shaken for 15 minutes before 5 µL cell lysate was transferred to a white 384‐well optiplate and processed for cAMP quantification as described previously. ^31 Samples were read using an Envision plate reader (PerkinElmer). cAMP concentrations were determined from a standard curve generated in duplicate.
(§4) In all experiments the position of peptides and antagonists (pharmacology) or transfected receptors (ELISAs) on assay plates was randomized during each independent experiment, which are independent biological replicates. In all cases, duplicate, triplicate, or quadruplicate technical replicates were conducted for each independent experiment.

[5] = test system: CRF2 receptor; settings: cited from earlier work
[6] = molecular target: T2, CRF2 receptor (hCRF2α); experiment: Antagonism of agonist-mediated cAMP accumulation in Cos7 cells expressing CRF2 receptors; assay type: cell-based; settings: for Kb: hCRF2α, global Schild analysis, mean ± SEM, n = 5, read-out: antagonist potency (pKB) (converted)
From the text: as §1, §2, §3, §4

Molecule: CCCCN(CC)c1nc(C)nc2c1c(C)c(C)n2-c1c(C)cc(C)cc1C [antalarmin]
- mode of antagonism of Gαi activity [1]: non‐competitive antagonist of Gαi activity
- mode of antagonism of Gαs activity [1]: competitive antagonist of Gαs

- Kb ([3]; agonist CRF, cAMP, n = 5): 479 nM
- Kb ([3]; agonist UCN1, cAMP, n = 5 (CP‐376,395), n = 3 (astressin2B)): > 5010 nM
- antagonism of UCN1‐mediated cAMP signaling ([3]; up to 5 μmol/L, CRF1 receptor): did not measurably antagonize
- Emax [4]: 11%
- potency against CRF‐mediated relative to UCN1‐mediated cAMP signaling ([6]; CRF2 receptor): approximately 10 fold
- Kb ([6]; agonist CRF, cAMP): 0.302 nM
- Kb ([6]; agonist UCN1, cAMP): 3.63 nM
- potency at CRF2 receptor compared to CRF1 receptor ([6]; antagonism of either CRF or UCN1‐induced cAMP signaling): at least 1000 fold
Molecule: CCCC[C@H](NC(=O)[C@H](CCCCN)NC(=O)[C@H](CCCNC(=N)N)NC(=O)[C@H](CC(C)C)NC(=O)[C@](C)(CC(C)C)NC(=O)[C@H](Cc1c[nH]cn1)NC(=O)[C@@H](Cc1ccccc1)NC(=O)[C@H](CO)NC(=O)[C@H](CC(C)C)NC(=O)[C@H](CC(=O)O)NC(C)=O)C(=O)N[C@H](C(=O)N[C@@H](CCC(=O)O)C(=O)N[C@H](C(=O)N[C@@H](CCC(=O)O)C(=O)N[C@@H](CCCCN)C(=O)N[C@@H](CCC(N)=O)C(=O)N[C@@H](CCC(=O)O)C(=O)N[C@@H](CCCCN)C(=O)N[C@@H](CCC(=O)O)C(=O)N[C@@H](CCCCN)C(=O)N[C@@H](CCC(N)=O)C(=O)N[C@@H](CCC(N)=O)C(=O)N[C@@H](C)C(=O)N[C@H]1CCC(=O)NCCCC[C@@H](C(=O)N[C@@H](CC(C)C)C(=O)N[C@@H](CC(C)C)C(=O)N[C@@H](CC(C)C)C(=O)N[C@@H](CC(=O)O)C(=O)N[C@@](C)(CC(C)C)C(=O)N[C@H](C(N)=O)[C@@H](C)CC)NC(=O)[C@H](CC(N)=O)NC(=O)[C@H](CC(N)=O)NC1=O)[C@@H](C)CC)[C@@H](C)CC [astressin2B]
- partial agonism [2]: this was not the case at the CRF1 receptor
- selectivity [5]: selective antagonist of the CRF2 receptor

- Emax ([2]; COS-7, read-out: E max (partial agonism of antagonist)): 14.8%
Molecule: DLTFHLLREMLEMAKAEQEAEQAALNRLLLEEA-NH2 [α‐helical CRF(9‐41)] [listing 1 of 2 here]

- Kb ([3]; agonist CRF, cAMP, n = 5): 170 nM
- Kb ([6]; agonist CRF, cAMP): 18.6 nM
Molecule: DLTFHLLREMLEMAKAEQEAEQAALNRLLLEEA-NH2 [α‐helical CRF(9‐41)] [listing 2 of 2 here]
